Calls of active or inactive are those of the source. The rule behind the calls is not given here.
Biological target: C-X-C chemokine receptor type 6 (Homo sapiens) (UniProt O00574)
Experiment: CXCR6 receptor antagonists, dose response, cell-based, beta-arrestin, DiscoveRx, APJ panel, uHTS hits (AID 624129)
Conditions: CXCR6 beta-arrestin (DiscoveRx) antagonist cell assay; for outcome: CXCR6, dose range 1; for inhibition: CXCR6, run 2, dose range 1, at 79 µM (top of the series)
[1] = CXCR6, dose range 1, mean IC50 across replicates

C-X-C chemokine receptor type 6 (Homo sapiens), sequence (O00574 whole entry, looked up): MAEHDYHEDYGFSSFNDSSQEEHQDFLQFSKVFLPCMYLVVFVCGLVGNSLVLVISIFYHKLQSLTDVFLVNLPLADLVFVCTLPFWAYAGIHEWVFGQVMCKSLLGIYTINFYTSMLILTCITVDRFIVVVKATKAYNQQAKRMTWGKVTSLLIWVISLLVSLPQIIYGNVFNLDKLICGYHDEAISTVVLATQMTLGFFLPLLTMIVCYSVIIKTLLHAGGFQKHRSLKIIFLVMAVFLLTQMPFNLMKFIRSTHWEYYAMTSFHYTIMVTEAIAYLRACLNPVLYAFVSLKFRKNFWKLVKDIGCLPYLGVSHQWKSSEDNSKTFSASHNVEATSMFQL

Row | Structure (SMILES) | outcome | IC50 [1] [µM] | IC50 (CXCR6, run 1, dose range 2) [µM] | inhibition [%] | IC50 (CXCR6, run 2, dose range 2) [µM]
1 | C=CCOc1ccc(C=NNc2ccc(S(=O)(=O)Nc3ccccc3C(=O)O)cc2[N+](=O)[O-])cc1OC | inactive | 28.8 | 29.4 | 98.5 | 28.2
2 | Cc1ccc(NCC(=O)c2ccc(C)cc2)cc1 | active | 5.44 | 5.44 | 58.5 | > 79
3 | C/C(=N\Nc1nc2ccccc2[nH]1)c1ccccn1 | active | 3.33 | 3.33 | -12.1 | > 79
4 | COc1ccc(C(=O)/C=C/Sc2nc3ccccc3o2)cc1 | inactive | 44.8 | 21.7 | 61.3 | 67.8
5 | CCCNC(=O)c1nnsc1S(=O)c1ccc(Cl)cc1 (stereo not given) | inactive | 11.7 | 11.8 | 112 | 11.7
6 | O=C(NNC(=O)c1cc(-c2ccccc2)nn1-c1ccccc1)c1ccccc1 | inactive | 11.5 | 10.4 | 75 | 12.6
7 | CC[N+]1(C)CCC(O)(/C=C/c2ccccc2)C(C(=O)/C=C/c2ccccc2)C1 (stereo not given) | inactive | 18.2 | 17.8 | 112 | 18.7
8 | Cc1cc(O)ccc1NC(=S)NC(=O)c1cncc(Br)c1 | inactive | 16.3 | 17.3 | 68.1 | 15.4
9 | COC(=O)C1=C(C(=O)OC)C2OC1c1cc3ccccc3cc12 | inactive | 14.5 | 12.3 | 112 | 16.7
10 | CCc1nc2c(OCCC3CCCCC3)cccn2c1N(C)C(=O)c1ccc(C)cc1 | inactive | 18.8 | 17.9 | 111 | 19.6
11 | O=C(Nc1ccccc1Oc1ccccc1)[C@@H]1O[C@H](CO)[C@H](O)[C@H](O)[C@H]1O | inactive | 14.2 | 12.4 | 99.6 | 15.9
12 | COc1cc(/C=C2\SC(=O)N(c3ccc(Cl)cc3)C2=O)cc([N+](=O)[O-])c1O | inactive | 20.6 | 12.8 | 88.6 | 28.4
13 | CCOC(=O)[C@]12Cc3cc(Cl)ccc3[C@H]1N(C1CCCCC1)C(=O)c1cc(OC)ccc12 | inactive | 17.8 | 16.2 | 113 | 19.5
14 | C=C1CCN([C@@H](Cc2ccccc2)C(=O)NCCC(C)C)S(=O)(=O)c2ccccc21 | inactive | 15.2 | 17.1 | 69.3 | 13.3
15 | O=C(NC(=S)N1CCN(c2ccc(C(F)(F)F)cc2[N+](=O)[O-])CC1)c1cccs1 | inactive | 12.9 | 10.4 | 85.8 | 15.4
16 | Cc1ccc(NC(=O)c2ccc(Nc3c([N+](=O)[O-])cc([N+](=O)[O-])cc3[N+](=O)[O-])cc2)cc1 | inactive | 28.5 | 31.4 | 89.3 | 25.7

Further molecules by falling IC50 [1], results first:

Row | outcome | IC50 [1] [µM] | IC50 (CXCR6, run 1, dose range 2) [µM] | inhibition [%] | IC50 (CXCR6, run 2, dose range 2) [µM] | Structure (SMILES)
17 | inactive | 50.5 | 50.5 | 61.7 | > 79 | CCCc1cc(=O)oc2cc(OC(=O)CN3C(=O)NC4(CCCC4)C3=O)ccc12
18 | inactive | 35.5 | 28.8 | 73.9 | 42.1 | COc1cc(/C=C(\C#N)c2nc3ccccc3o2)ccc1O
19 | inactive | 28.4 | 35 | 78.8 | 21.8 | COc1cc(/C=C/c2ccc3cccc(OC)c3n2)c(OC(C)=O)c([N+](=O)[O-])c1
20 | inactive | 24.3 | 24.3 | 101 | 24.2 | O=C1c2cccc3c([N+](=O)[O-])ccc(c23)C(=O)N1c1ccccn1
21 | inactive | 22 | 23.6 | 108 | 20.3 | CCCC(=O)OCCNc1cc(SCCC(=O)OC)c2nonc2c1[N+](=O)[O-]
22 | inactive | 19.4 | 20.6 | 111 | 18.2 | COc1cccc(/C=C2/CCC(CN(C)C)C2=O)c1 (stereo not given)
23 | inactive | 17.2 | 17.3 | 109 | 17.1 | CCOc1ccc(/C=C/[N+](=O)[O-])c2ccccc12
24 | inactive | 16.8 | 16.8 | 27.4 | > 79 | O=C(COC(=O)C1CCN(S(=O)(=O)c2cccs2)CC1)c1cc2ccccc2o1
25 | inactive | 16.2 | 13.9 | 113 | 18.4 | COC(=O)c1cc([N+](=O)[O-])c(-n2cncn2)c([N+](=O)[O-])c1
26 | inactive | 15.1 | 14.8 | 110 | 15.5 | CCOC(=O)c1cc([N+](=O)[O-])c([N+](=O)[O-])cc1NC(C)=O
27 | inactive | 14.1 | 13.8 | 112 | 14.3 | CCCNC(=O)c1nnsc1S(=O)(=O)c1ccc(Cl)cc1
28 | inactive | 14 | 14.3 | 111 | 13.8 | CN(C)CC1CC/C(=C\c2ccc(O)cc2)C1=O (stereo not given)
29 | inactive | 14 | 13.6 | 114 | 14.4 | Cc1cc(O)c(-c2cc(O)c(C)cc2O)cc1O
30 | inactive | 13.6 | 9.19 | 99.3 | 18 | CCOC(=O)c1c(-c2ccc(C)o2)csc1NC(=S)NC(=O)N(C)C
31 | inactive | 13.5 | 13.1 | 74.3 | 14 | COc1cccc(C(=O)NC(=S)N2CCN(c3ccc(C(F)(F)F)cc3[N+](=O)[O-])CC2)c1
32 | inactive | 13.1 | 11.5 | 112 | 14.7 | Cc1cccc(CS(=O)(=O)c2ncc(Cl)c(C(=O)NCc3ccccc3)n2)c1
33 | inactive | 12.2 | 11.3 | 103 | 13.1 | CCCC(=O)OCCNc1cc(SCc2ccco2)c2nonc2c1[N+](=O)[O-]
34 | inactive | 11.8 | 12.4 | 39.5 | 11.1 | C/C(=N\NC(=S)NCCc1ccccc1)c1ccc(Cl)cc1Cl
35 | inactive | 11.4 | 10.5 | 79.2 | 12.3 | CCCCC(=O)NC(=S)Nc1ccccc1C(=O)Nc1ccccc1
36 | active | 5.58 | 5.58 | 36.4 | > 79 | NC(=O)c1ccccc1NCC(=O)c1ccc(Cl)cc1

— PubChem BioAssay AID624129 (Sanford-Burnham Center for Chemical Genomics, 2012)
